Measured values as given in patent US5059602A, “4-substituted dihydropyrido(4,3-d)pyrimidines as analgesics and topical antiinflammatory agents for the treatment of skin disorders” (Hoechst-Roussel Pharmaceuticals Inc., priority 1990, dated 1991).
Counter-ions that a name gives are not always drawn. Like-named read-outs stand apart in the source and are kept apart here.

Columns and labels:
[1] = test system: ear edema induced by topical application of TPA (phorbol 12-myristate acetate); assay: TPA-Induced Ear Edema (TPAEE); type: in vivo, Female Swiss Webster mice; settings: for change in vivo at 10 µg/ear: 5 h, read-out: TPAEE
Protocol: TPA-Induced Ear Edema (TPAEE)
The purpose of this assay was to determine the ability of a topically-applied compound to prevent ear edema induced by topical application of TPA (phorbol 12-myristate acetate). Female Swiss Webster mice topically received TPA (10 μg/ear) on the right ear and vehicle on the left ear. The test compound (10 μg/ear) was applied to both ears. After five hours, the animals were sacrificed and an ear punch (4 mm) was taken from each ear. The difference in right and left ear punch weights for each animal was determined to assess activity. […] See Young, J. M. et al., J. Invest. Dermatol., 80 (1983), pp. 48-52.

[2] = test system: mouse ear edema induced by topical application of arachidonic acid; assay: Arachidonic Acid-Induced Ear Edema (AAEE); type: in vivo, Female Swiss Webster mice; settings: for AAEE: 1.0 mg (per ear), mouse
Protocol: Arachidonic Acid-Induced Ear Edema (AAEE)
The purpose of this assay was to determine the ability of a topically-applied compound to prevent mouse ear edema induced by topical application of arachidonic acid. Female Swiss Webster mice topically received vehicle or test compound (1.0 mg/ear) on both ears (10 μl on outer and inner ears). After 30 minutes, the right ear of all groups received arachidonic acid (4 mg/ear) and the left ear received vehicle alone. After an additional 1 hour, the mice were sacrificed and an ear punch (4 mm) was taken from each ear. The difference in right and left ear punch weights for each animal was determined to assess activity. […] See Young, J. M. et al., Invest. Dermatol., 80, (1983), pp 48-52.

[3] = test system: naja naja (snake venom) phospholipase A2 -induced paw edema; assay: Phospholipase A2-induced Paw Edema (PIPE); type: in vivo, male Wistar rats; settings: 0.1M; rat hindpaw, subplantar injection with PLA2 (3 units/paw), 2 hours
Protocol: Phospholipase A2 -induced Paw Edema (PIPE)
The ability of compounds to prevent naja naja (snake venom) phospholipase A2 -induced paw edema in male Wistar rats (100-125 g) was measured. PLA2 (3 units/paw) alone or with 0.1M of the test compound was injected in the subplantar region of the rat left hindpaw. Immediately subsequent to the injection and at two hours post administration the paw was immersed in a mercury bath, and paw displacement was measured on a recorder via a transducer. […] See Giessler, A. J. et al., Agents and Actions, Vol. 10, Trends in Inflammation Research (1981), p. 195.

[4] = test system: 2-phenyl-1,4-benzoquinone-induced writhing; assay: 2-phenyl-1,4-benzoquinone-induced writhing test (PQW); type: in vivo, mice; settings: Mus musculus, sc, read-out: PQW % Inhibition of writhing
[5] = 10 μg (per ear), mouse, five hours

Row | Compound | change in vivo at 10 µg/ear [1, 5] | PIPE (difference in edema vs. control) [3] | also measured
1 | Nc1ccncc1C(=NO)c1ccccc1 [(4-Amino-3-pyridinyl)phenylmethanone oxime hydrochloride] | -32% | – | –
2 | COc1ccc2c(c1)c(CC(=O)O)c(C)n2C(=O)c1ccc(Cl)cc1 [indomethacin, reference compound] | – | – | ED50 ([2]; standard, AAEE): 1.5 mg/ear
3 | CCCCNCc1cnccc1NC(=O)C(C)(C)C.Cl.Cl [N-[3-[(Butylamino)methyl]-4-pyridinyl]-2,2-dimethylpropanamide dihydrochloride] | – | – | AAEE [2]: -45%
4 | CC(NCc1ccccc1)c1cnccc1NC(=O)C(C)(C)C.Cl.Cl (centres unmarked) [N-[3-[1-(Phenylmethylamino)ethyl]-4-pyridinyl]-2,2-dimethylpropionamide dihydrochloride] | – | – | AAEE [2]: -44%
5 | Nc1ccncc1C(=O)C1CCCCC1 [(4-Amino-3-pyridinyl)cyclohexylmethanone hydrochloride] | -53% | – | –
6 | C1=NC(C2CCCCC2)c2cnccc2N1.Cl.Cl (centres unmarked) [4-Cyclohexyl-1,4-dihydropyrido[4,3-d]pyrimidine dihydrochloride] | – | -44% | –
7 | Nc1ccncc1C(=NO)C1CCCCC1 [(4-Amino-3-pyridinyl)cyclohexylmethanone oxime hydrochloride] | -34% | – | –
8 | CC(NCc1ccccc1)c1cnccc1N (stereo not drawn) [4-Amino-α-methyl-N-(phenylmethyl)-3-pyridinemethanamine] | -45% | – | inhibition in vivo at 20 mg/kg ([4]; 20 mg/kg, s.c.): 58%
9 | CC(C)(C)C(=O)Nc1ccncc1C(O)C1CCCCC1 (stereo not drawn) [α-Cyclohexyl-α-[4-(2,2-dimethylpropionamido)-3-pyridinyl]-methanol] | -55% | -35% | AAEE [2]: -52%; inhibition in vivo at 20 mg/kg ([4]; 20 mg/kg, s.c.): 32%
10 | Nc1ccncc1C(N)c1ccccc1 (centres unmarked) [(4-Amino-3-pyridinyl)benzenemethanamine dihydrochloride] | – | -66% | –
11 | C[C@]12CCC(=O)C=C1CC[C@@H]1[C@@H]2[C@@H](O)C[C@@]2(C)[C@H]1CC[C@]2(O)C(=O)CO [hydrocortisone, reference compound] | – | – | ED50 ([1]; standard, TPAEE): 47 μg/ear
12 | CC(=O)c1cnccc1NC(=O)C(C)(C)C [N-(3-Acetyl-4-pyridinyl)-2,2-dimethylpropanamide] | – | – | inhibition in vivo at 20 mg/kg ([4]; 20 mg/kg, s.c.): 34%
13 | CC(O)c1cnccc1NC(=O)C(C)(C)C (stereo not drawn) [α-Methyl-α-[4-(2,2-dimethylpropionamido)-3-pyridinyl]-methanol] | -46% | – | –
14 | Cl.Cl.Nc1ccncc1CNCc1ccccc1 [3-[(Phenylmethylamino)methyl]-4-pyridinamine dihydrochloride] | – | -51% | –
15 | Cl.Cl.Nc1ccncc1C(N)C1CCCCC1 (centres unmarked) [(4-Amino-3-pyridinyl)cyclohexylmethanamine dihydrochloride] | -36% | -68% | AAEE [2]: -28%
16 | CC1c2cnccc2N=CN1Cc1ccccc1 (centres unmarked) [3,4-Dihydro-4-methyl-3-phenylmethylpyrido[4,3-d]pyrimidine dihydrochloride] | – | – | change in vivo at 10 µg/ear ([1]; Mus musculus): -55%; inhibition in vivo at 20 mg/kg [4]: 85%
